25 molecules from patent US8471005B2 (Cephalon, Inc., priority 2008, dated 2013) can be followed below.

A value given as a limit tells only on which side of the number the result lay.

One assay addresses T1, ALK (Homo sapiens, UniProt Q9UM73).
T1 construct: host or cells: baculovirus expression system
The assay can be described thus: ALK Kinase Assay (ELISA/TRF, PLC-γ substrate). As to conditions: ALK kinase inhibition, 1 μM ATP; read-out: ALK Potency. The assay is classed as biochemical. In outline:
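Wells were coated with 10 μg/mL phospholipase C-γ substrate in TBS, and the reaction was started by adding 30 ng/ml ALK enzyme and run at 37° C for 15 minutes. Phosphorylated product was detected with Eu-N1-labeled PT66 antibody, and IC50 values came from sigmoidal variable-slope fits of percent inhibition against log concentration.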
(In general: An ELISA detects its analyte on a solid surface through an enzyme-linked reagent.)

The target in a further assay is T2, JAK2 (Homo sapiens, UniProt O60674).
T2 construct: host or cells: baculovirus expression system
The assay can be described thus: Recombinant Human JAK2 Kinase Assay (TRF). The settings on record: JAK2 kinase inhibition, 0.2 μM ATP; read-out: JAK2 Potency. The assay is classed as biochemical. In outline: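 Baculovirus-expressed JAK2 (15 ng/ml) phosphorylated a biotinylated 15-mer peptide captured on Neutravidin, in 20 mM HEPES pH 7.2, 0.2 μM ATP, 1 mM MnCl2, 0.1% BSA, 2.5% DMSO final, 20 min at room temperature. Phosphoproduct detected by time-resolved fluorescence with Eu-N1-labelled PY100 antibody.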

T2 sequence (O60674 whole entry): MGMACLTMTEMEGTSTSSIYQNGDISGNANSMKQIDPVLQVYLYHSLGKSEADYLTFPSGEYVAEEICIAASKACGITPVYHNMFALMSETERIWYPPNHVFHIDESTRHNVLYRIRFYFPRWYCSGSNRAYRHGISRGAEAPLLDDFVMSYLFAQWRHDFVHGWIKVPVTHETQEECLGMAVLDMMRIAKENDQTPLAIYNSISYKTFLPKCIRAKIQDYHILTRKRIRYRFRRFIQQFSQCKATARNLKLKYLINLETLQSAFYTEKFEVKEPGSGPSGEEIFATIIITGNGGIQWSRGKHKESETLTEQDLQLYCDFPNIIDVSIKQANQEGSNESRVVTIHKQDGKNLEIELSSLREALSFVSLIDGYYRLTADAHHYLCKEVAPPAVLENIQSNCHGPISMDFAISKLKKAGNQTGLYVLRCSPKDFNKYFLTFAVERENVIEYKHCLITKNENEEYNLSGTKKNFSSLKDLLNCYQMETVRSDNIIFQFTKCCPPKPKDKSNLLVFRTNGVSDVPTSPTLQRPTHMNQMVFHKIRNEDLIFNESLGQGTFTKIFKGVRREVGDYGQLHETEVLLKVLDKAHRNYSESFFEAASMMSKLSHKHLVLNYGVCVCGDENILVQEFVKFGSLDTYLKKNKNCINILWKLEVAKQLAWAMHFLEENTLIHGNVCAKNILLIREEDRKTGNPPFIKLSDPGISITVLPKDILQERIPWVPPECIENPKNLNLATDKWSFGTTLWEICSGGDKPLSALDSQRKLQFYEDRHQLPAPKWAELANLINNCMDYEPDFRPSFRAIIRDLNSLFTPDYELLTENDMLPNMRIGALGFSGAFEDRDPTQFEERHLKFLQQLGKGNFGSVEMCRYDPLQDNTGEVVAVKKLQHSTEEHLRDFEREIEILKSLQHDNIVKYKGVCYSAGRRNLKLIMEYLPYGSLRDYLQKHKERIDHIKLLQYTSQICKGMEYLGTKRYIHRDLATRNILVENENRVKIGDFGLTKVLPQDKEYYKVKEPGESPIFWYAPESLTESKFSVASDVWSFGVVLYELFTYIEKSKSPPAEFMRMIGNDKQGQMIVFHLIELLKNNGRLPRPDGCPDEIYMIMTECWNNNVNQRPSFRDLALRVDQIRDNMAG
T1 sequence (Q9UM73 19-1620): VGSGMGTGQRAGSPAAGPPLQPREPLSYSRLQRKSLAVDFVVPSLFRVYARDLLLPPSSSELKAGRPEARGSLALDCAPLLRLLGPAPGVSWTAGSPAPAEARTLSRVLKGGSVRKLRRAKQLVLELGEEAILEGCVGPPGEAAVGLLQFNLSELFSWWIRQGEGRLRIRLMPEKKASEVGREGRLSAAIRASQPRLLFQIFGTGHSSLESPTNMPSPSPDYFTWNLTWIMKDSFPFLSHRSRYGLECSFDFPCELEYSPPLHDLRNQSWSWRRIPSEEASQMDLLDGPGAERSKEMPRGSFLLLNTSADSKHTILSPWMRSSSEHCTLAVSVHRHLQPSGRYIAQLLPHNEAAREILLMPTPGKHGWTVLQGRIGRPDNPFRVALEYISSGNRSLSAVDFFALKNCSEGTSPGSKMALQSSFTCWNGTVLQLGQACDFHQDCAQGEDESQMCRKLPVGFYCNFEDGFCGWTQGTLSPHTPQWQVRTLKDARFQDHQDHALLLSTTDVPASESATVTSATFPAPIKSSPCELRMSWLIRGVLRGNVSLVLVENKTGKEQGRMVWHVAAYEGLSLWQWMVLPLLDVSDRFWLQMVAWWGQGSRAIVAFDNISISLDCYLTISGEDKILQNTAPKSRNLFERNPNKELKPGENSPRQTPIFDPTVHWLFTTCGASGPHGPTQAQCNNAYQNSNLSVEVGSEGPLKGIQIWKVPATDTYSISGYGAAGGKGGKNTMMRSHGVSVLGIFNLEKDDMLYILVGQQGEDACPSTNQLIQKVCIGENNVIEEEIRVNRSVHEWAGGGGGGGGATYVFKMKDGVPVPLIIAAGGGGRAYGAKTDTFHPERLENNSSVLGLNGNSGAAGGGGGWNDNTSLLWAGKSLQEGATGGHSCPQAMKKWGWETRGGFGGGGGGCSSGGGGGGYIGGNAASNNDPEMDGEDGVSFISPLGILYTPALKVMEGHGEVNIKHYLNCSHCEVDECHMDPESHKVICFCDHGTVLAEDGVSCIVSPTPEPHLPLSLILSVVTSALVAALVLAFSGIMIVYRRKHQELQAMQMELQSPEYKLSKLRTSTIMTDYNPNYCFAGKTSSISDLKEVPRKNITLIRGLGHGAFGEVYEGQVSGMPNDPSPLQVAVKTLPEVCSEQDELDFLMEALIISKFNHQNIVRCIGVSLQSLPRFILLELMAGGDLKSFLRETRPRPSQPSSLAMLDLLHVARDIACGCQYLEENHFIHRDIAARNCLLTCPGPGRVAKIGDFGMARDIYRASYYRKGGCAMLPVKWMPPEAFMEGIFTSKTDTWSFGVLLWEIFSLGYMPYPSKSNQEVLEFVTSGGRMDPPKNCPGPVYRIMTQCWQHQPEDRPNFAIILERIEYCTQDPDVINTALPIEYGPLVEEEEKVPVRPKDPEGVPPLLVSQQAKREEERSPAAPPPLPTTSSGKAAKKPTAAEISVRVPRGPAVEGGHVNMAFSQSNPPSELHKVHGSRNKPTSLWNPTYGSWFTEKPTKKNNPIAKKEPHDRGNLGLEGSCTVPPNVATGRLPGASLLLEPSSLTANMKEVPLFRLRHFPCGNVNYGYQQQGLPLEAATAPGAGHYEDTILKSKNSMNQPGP

Consider `COc1cc(CCN2CCN(C)CC2)ccc1Nc1ncc2ccc(-c3ccccc3OC)n2n1` [Example 488, {2-Methoxy-4-[2-(4-methyl-piperazin-1-yl)-ethyl]-phenyl}-[7-(2-methoxy-phenyl)-pyrrolo[2,1-f][1,2,4]triazin-2-yl]-amine], for which the IC50 at ALK is less than 100 nM; on JAK2, 100 to 1000 nM.

`COc1cc(C(=O)N2CCN(C)CC2)ccc1Nc1ncc2ccc(-c3ccccc3OC)n2n1` [Example 489, {3-Methoxy-4-[7-(2-methoxy-phenyl)-pyrrolo[2,1-f][1,2,4]triazin-2-ylamino]-phenyl}-(4-methyl-piperazin-1-yl)-methanone]: the IC50 at ALK and on JAK2 was 100 to 1000 nM throughout.

With `COc1cc(C(=O)N2CCN(C)CC2)ccc1Nc1ncc2ccc(-c3ccccc3N(C)S(C)(=O)=O)n2n1` [Example 490, N-(2-{2-[2-Methoxy-4-(4-methyl-piperazine-1-carbonyl)-phenylamino]-pyrrolo[2,1-f][1,2,4]triazin-7-yl}-phenyl)-N-methyl-methanesulfonamide], the values for the IC50 at ALK and on JAK2 were 100 to 1000 nM and 1000 to 10000 nM, respectively.

On to `COc1cc(CCN2CCN(C)CC2)ccc1Nc1ncc2ccc(-c3ccccc3N(C)S(C)(=O)=O)n2n1` [Example 491, N-[2-(2-{2-Methoxy-4-[2-(4-methyl-piperazin-1-yl)-ethyl]-phenylamino}-pyrrolo[2,1-f][1,2,4]triazin-7-yl)-phenyl]-N-methyl-methanesulfonamide], for which the figures for the IC50 at ALK and at JAK2 were less than 100 nM and 100 to 1000 nM, respectively.

As to `COc1cc(CCN2CCOCC2)ccc1Nc1ncc2ccc(-c3ccccc3OC)n2n1` [Example 492, [2-Methoxy-4-(2-morpholin-4-yl-ethyl)-phenyl]-[7-(2-methoxy-phenyl)-pyrrolo[2,1-f][1,2,4]triazin-2-yl]-amine], the figures for the IC50 at ALK and on JAK2 were less than 100 nM and 100 to 1000 nM, respectively.

For the molecule `COc1cc(CCN2CCOCC2)ccc1Nc1ncc2ccc(-c3ccccc3N(C)S(C)(=O)=O)n2n1` [Example 493, N-(2-{2-[2-Methoxy-4-(2-morpholin-4-yl-ethyl)-phenylamino]-pyrrolo[2,1-f][1,2,4]triazin-7-yl}-phenyl)-N-methyl-methanesulfonamide], the IC50 at ALK was less than 100 nM; at JAK2 it was 100 to 1000 nM.

With `COc1ccc(C(=O)N2CCN(C)CC2)cc1Nc1ncc2ccc(-c3ccccc3OC)n2n1` [Example 494, {4-Methoxy-3-[7-(2-methoxy-phenyl)-pyrrolo[2,1-f][1,2,4]triazin-2-ylamino]-phenyl}-(4-methyl-piperazin-1-yl)-methanone], the IC50 at ALK was 1000 to 10000 nM; at JAK2 it was greater than 10000 nM.

Consider `COc1ccc(CN2CCN(C)CC2)cc1Nc1ncc2ccc(-c3ccccc3OC)n2n1` [Example 495, [2-Methoxy-5-(4-methyl-piperazin-1-ylmethyl)-phenyl]-[7-(2-methoxy-phenyl)-pyrrolo[2,1-f][1,2,4]triazin-2-yl]-amine], for which the IC50 at ALK is 1000 to 10000 nM; on JAK2, less than 100 nM.

Regarding `COc1ccc(C(=O)N2CCN(C)CC2)cc1Nc1ncc2ccc(-c3ccccc3N(C)S(C)(=O)=O)n2n1` [Example 496, N-(2-{2-[2-Methoxy-5-(4-methyl-piperazine-1-carbonyl)-phenylamino]-pyrrolo[2,1-f][1,2,4]triazin-7-yl}-phenyl)-N-methyl-methanesulfonamide], the IC50 on ALK is 1000 to 10000 nM; at JAK2, greater than 10000 nM.

Take `COc1ccc(CN2CCN(C)CC2)cc1Nc1ncc2ccc(-c3ccccc3N(C)S(C)(=O)=O)n2n1` [Example 497, N-(2-{2-[2-Methoxy-5-(4-methyl-piperazin-1-ylmethyl)-phenylamino]-pyrrolo[2,1-f][1,2,4]triazin-7-yl}-phenyl)-N-methyl-methanesulfonamide]: the IC50 on ALK and at JAK2 was 1000 to 10000 nM each time.

Turning to `COc1ccc(CN2CCOCC2)cc1Nc1ncc2ccc(-c3ccccc3N(C)S(C)(=O)=O)n2n1` [Example 498, N-{2-[2-(2-Methoxy-5-morpholin-4-ylmethyl-phenylamino)-pyrrolo[2,1-f][1,2,4]triazin-7-yl]-phenyl}-N-methyl-methanesulfonamide], the IC50 at ALK and at JAK2 was 1000 to 10000 nM in each case.

Consider `COc1ccc(CN2CCOCC2)cc1Nc1ncc2ccc(-c3ccccc3OC)n2n1` [Example 499, (2-Methoxy-5-morpholin-4-ylmethyl-phenyl)-[7-(2-methoxy-phenyl)-pyrrolo[2,1-f][1,2,4]triazin-2-yl]-amine], for which the IC50 on ALK fell in the range of 1000 to 10000 nM; at JAK2, 100 to 1000 nM.

Regarding `COc1ccccc1-c1ccc2cnc(Nc3ccc(C4CCN(C(=O)C5CCN(C)CC5)CC4)cc3)nn12` [Example 500, (4-{4-[7-(2-Methoxy-phenyl)-pyrrolo[2,1-f][1,2,4]triazin-2-ylamino]-phenyl}-piperidin-1-yl)-(1-methyl-piperidin-4-yl)-methanone], the IC50 at ALK and at JAK2 was less than 100 nM each time.

As for `COc1ccccc1-c1ccc2cnc(Nc3ccc(C4CCN(C(=O)N5CCN(C)CC5)CC4)cc3)nn12` [Example 501, (4-{4-[7-(2-Methoxy-phenyl)-pyrrolo[2,1-f][1,2,4]triazin-2-ylamino]-phenyl}-piperidin-1-yl)-(4-methyl-piperazin-1-yl)-methanone], the IC50 on ALK and on JAK2 was less than 100 nM each time.

For the molecule `CN1CCC(C(=O)N2CCC(c3ccc(Nc4ncc5ccc(-c6ccccc6N(C)S(C)(=O)=O)n5n4)cc3)CC2)CC1` [Example 502, N-Methyl-N-[2-(2-{4-[1-(1-methyl-piperidine-4-carbonyl)-piperidin-4-yl]-phenylamino}-pyrrolo[2,1-f][1,2,4]triazin-7-yl)-phenyl]-methanesulfonamide], the IC50 at ALK and on JAK2 was less than 100 nM in each case.

In the case of `CN1CCN(C(=O)N2CCC(c3ccc(Nc4ncc5ccc(-c6ccccc6N(C)S(C)(=O)=O)n5n4)cc3)CC2)CC1` [Example 503, N-Methyl-N-[2-(2-{4-[1-(4-methyl-piperazine-1-carbonyl)-piperidin-4-yl]-phenylamino}-pyrrolo[2,1-f][1,2,4]triazin-7-yl)-phenyl]-methanesulfonamide], the IC50 at ALK and at JAK2 was less than 100 nM each time.

For the molecule `COc1cc(Cn2ccnc2C)ccc1Nc1ncc2ccc(-c3ccccc3N(C)S(C)(=O)=O)n2n1` [Example 505, N-(2-{2-[2-Methoxy-4-(2-methyl-imidazol-1-ylmethyl)-phenylamino]-pyrrolo[2,1-f][1,2,4]triazin-7-yl}-phenyl)-N-methyl-methanesulfonamide], the IC50 on ALK is less than 100 nM; on JAK2, 1000 to 10000 nM.

With `COc1cc(Cn2ccnc2C)ccc1Nc1ncc2ccc(-c3ccccc3OC)n2n1` [Example 506, [2-Methoxy-4-(2-methyl-imidazol-1-ylmethyl)-phenyl]-[7-(2-methoxy-phenyl)-pyrrolo[2,1-f][1,2,4]triazin-2-yl]-amine], the results for the IC50 at ALK and at JAK2 were less than 100 nM and 100 to 1000 nM, respectively.

`COc1ccccc1-c1ccc2cnc(Nc3ccc(N4CCN(C)CC4)cc3Cl)nn12` [Example 508, [2-Chloro-4-(4-methyl-piperazin-1-yl)-phenyl]-[7-(2-methoxy-phenyl)-pyrrolo[2,1-f][1,2,4]triazin-2-yl]-amine]: the IC50 at ALK and at JAK2 was less than 100 nM in each case.

For `COc1cc(N2CCC(N3CCOCC3)CC2)ccc1Nc1ncc2ccc(-c3c(F)cccc3OC)n2n1` [Example 509, [7-(2-Fluoro-6-methoxy-phenyl)-pyrrolo[2,1-f][1,2,4]triazin-2-yl]-[2-methoxy-4-(4-morpholin-4-yl-piperidin-1-yl)-phenyl]-amine], the IC50 on ALK and on JAK2 was less than 100 nM in each case.

On to `COc1cc(N2CCC(N3CCOCC3)CC2)ccc1Nc1ncc2ccc(-c3ccc(F)cc3OC)n2n1` [Example 510, [7-(4-Fluoro-2-methoxy-phenyl)-pyrrolo[2,1-f][1,2,4]triazin-2-yl]-[2-methoxy-4-(4-morpholin-4-yl-piperidin-1-yl)-phenyl]-amine], for which the IC50 at ALK and on JAK2 was less than 100 nM in each case.

As to `COc1cc(N2CCC(N3CCOCC3)CC2)ccc1Nc1ncc2ccc(-c3ccccc3C#N)n2n1` [Example 511, 2-{2-[2-Methoxy-4-(4-morpholin-4-yl-piperidin-1-yl)-phenylamino]-pyrrolo[2,1-f][1,2,4]triazin-7-yl}-benzonitrile], the IC50 on ALK and at JAK2 was less than 100 nM throughout.

On to `COc1cc(N2CCC(N3CCOCC3)CC2)ccc1Nc1ncc2ccc(-c3cccc4cccnc34)n2n1` [Example 512, [2-Methoxy-4-(4-morpholin-4-yl-piperidin-1-yl)-phenyl]-(7-quinolin-8-yl-pyrrolo[2,1-f][1,2,4]triazin-2-yl)-amine], for which the IC50 on ALK was 100 to 1000 nM; on JAK2 it was 1000 to 10000 nM.

Turning to `N#Cc1ccccc1-c1ccc2cnc(Nc3ccc(C4CCN(CC(N)=O)CC4)cc3)nn12` [Example 513, 2-(4-{4-[7-(2-Cyano-phenyl)-pyrrolo[2,1-f][1,2,4]triazin-2-ylamino]-phenyl}-piperidin-1-yl)-acetamide], the IC50 on ALK and on JAK2 was less than 100 nM each time.

As for `NC(=O)CN1CCC(c2ccc(Nc3ncc4ccc(-c5cccc6cccnc56)n4n3)cc2)CC1` [Example 514, 2-{4-[4-(7-Quinolin-8-yl-pyrrolo[2,1-f][1,2,4]triazin-2-ylamino)-phenyl]-piperidin-1-yl}-acetamide], the IC50 at ALK is 1000 to 10000 nM; at JAK2, less than 100 nM.
